The source of these data is patent publication US20230374034A1, “NOVEL BICYCLIC COMPOUNDS” (PRISM BIOLAB CO., LTD., priority 2020, published 2023).

The test system of one experiment is NICD (Notch intracellular domain) CSL-bla reporter in HeLa cells. The experiment in a line: Notch assay (CellSensor T-REx NICD CSL-bla HeLa beta-lactamase reporter; Method 1 / Method 2). The class given is cell-based. The following applies: Homo sapiens, 10 μM compound, Method 1 (10× compound prepared in assay medium, added to plated cells), read-out: inhibiton (%) at 10 μM. The source says: We used the CellSensor T-REx™ NICD CSL-bla HeLa cell line, which was engineered by lentiviral transduction of HeLa cells with a Notch response element driving beta-lactamase reporter gene expression (CSL-bla) along with DOX (doxycycline)-inducible NICD (Notch intracellular domain) constructs. Addition of DOX to these cells allows for regulated NICD transcription factor expression and subsequent beta-lactamase expression.
Specifically, the following protocol was used.
NOTCH ASSAY PROTOCOL (Method 2)
• 1. Add 40 nL/well of working concentration of 1000× compound to 384-well assay plate with Echo. • 2. Plate Cells: 35 μl/well of HeLa/T-REx™ NICD CSL-bla cells at 10^3 cells/well complete medium into 384-well plate. • 3. Add 5 μl 8× Doxycycline in Assay Medium to the treated wells, and 5 μl Assay Medium to the Untreated and cell free control wells. • 4. Incubate the assay plate in a humidified 37° C./5% CO2 incubator for 16-20 hours. • 5. Preparation of 6× LiveBLAzer™-FRET B/G Substrate (CCF4-AM) Mixture according to the manual and cell loading should be done in the absence of direct strong lighting. • 6. Remove assay plate from the humidified 37° C./5% CO2 incubator. Add 8 μl of 6× Substrate Mixture from Step 5 to each well. Cover the plate to protect it from light and evaporation. Incubate at room temperature for 4 hours. • 7. Reading an Assay Plate using the following filter selections:
• 8. Data analysis: Use the assay plate layout to identify the location of the Cell-free wells. These control wells are used for background subtraction. Determine the average emission from the Cell-free wells at both 460 nm (Average Blue Background) and 530 nm(Average Green Background). Subtract the Average Blue Background (data collected at 460 nm) from all of the blue emission data. Subtract the Average Green background (data collected at 530 nm) from all of the green emission data. Calculate the Blue/Green Emission Ratio for each well, by dividing the background-subtracted blue emission values by the background-subtracted green emission values.
Instead of Step 1 to Step 3, the following Step a to Step d can also be performed. The subsequent steps are the same as Method 2, after Step 4 (Method 1). • a. Plate Cells: 32 μL/well of HeLa/T-REx™ NICD CSL-bla cells at 10^3 cells/well complete medium into 384-well plate. • b. Prepare 10× compounds in assay medium. • c. Add 4 μL compounds or 1% DMSO in assay medium to the cells. • d. Add 4 μL 10×Doxycycline in Assay Medium to the treated wells, and 4 μL Assay Medium to the Untreated and cell free control wells.
The results are shown in Table 13 (Table 13-1 to Table 13-2).
`CCCCCCOC(=O)N1O[C@H](CCCC)C(=O)N2C1CN(CCC(C)C)C(=O)[C@@H]2Cc1ccc(O)cc1` (stereo partly drawn) [Compound I-2, (3R,6S)-hexyl 3-butyl-6-(4-hydroxybenzyl)-8-isopentyl-4,7-dioxohexahydropyrazino[2,1-c][1,2,4]oxadiazine-1(6H)-carboxylate]: the inhibition at 10 µM was found to be 53.5%. In the case of `CC(C)C[C@H]1ON(C(=O)OCc2cccc3ccccc23)C2CN(C(C)C)C(=O)[C@H](Cc3ccc(O)cc3)N2C1=O` (stereo partly drawn) [Compound I-14, (3R,6S)-naphthalen-1-ylmethyl 6-(4-hydroxybenzyl)-3-isobutyl-8-isopropyl-4,7-dioxohexahydropyrazino[2,1-c][1,2,4]oxadiazine-1(6H)-carboxylate], the inhibition at 10 µM worked out at 64.8%.

For the compound `CCCCCCOC(=O)N1O[C@@H](Cc2ccccc2)C(=O)N2C1CN(Cc1ccccc1)C(=O)[C@@H]2Cc1ccc(O)cc1` (stereo partly drawn) [Compound I-6, (35,6S)-hexyl 3,8-dibenzyl-6-(4-hydroxybenzyl)-4,7-dioxohexahydropyrazino[2,1-c][1,2,4]oxadiazine-1(6H)-carboxylate], the inhibition at 10 µM is 62.1%. Still for that read-out and setting: with `CC(C)CCN1CC2N(C(=O)OCc3cccc4ccccc34)O[C@@H](CC(N)=O)C(=O)N2[C@@H](CC2CCCCC2)C1=O` (stereo partly drawn) [Compound I-27, (3S,6S)-naphthalen-1-ylmethyl 3-(2-amino-2-oxoethyl)-6-(cyclohexylmethyl)-8-isopentyl-4,7-dioxohexahydropyrazino[2,1-c][1,2,4]oxadiazine-1(6H)-carboxylate] the figure was 62.9%. Still for that read-out and setting: with `CCCC[C@H]1ON(C(=O)OCc2cccc3ccccc23)C2CN(Cc3ccccc3)C(=O)[C@H](Cc3ccc(O)cc3)N2C1=O` (stereo partly drawn) [Compound I-11, (3R,6S)-naphthalen-1-ylmethyl 8-benzyl-3-butyl-6-(4-hydroxybenzyl)-4,7-dioxohexahydropyrazino[2,1-c][1,2,4]oxadiazine-1(6H)-carboxylate] the figure was 51.7%; with `CCCCCCOC(=O)N1O[C@@H](C(C)C)C(=O)N2C1CN(Cc1ccccc1)C(=O)[C@@H]2Cc1ccc(O)cc1` (stereo partly drawn) [Compound I-3, (3S,6S)-hexyl 8-benzyl-6-(4-hydroxybenzyl)-3-isopropyl-4,7-dioxohexahydropyrazino[2,1-c][1,2,4]oxadiazine-1(6H)-carboxylate], 53.6%; with `CC(C)C[C@@H]1ON(C(=O)OCc2cccc3ccccc23)C2CN(C(C)C)C(=O)[C@H](Cc3ccc(O)cc3)N2C1=O` (stereo partly drawn) [Compound I-24, (3S,6S)-naphthalen-1-ylmethyl 6-(4-hydroxybenzyl)-3-isobutyl-8-isopropyl-4,7-dioxohexahydropyrazino[2,1-c][1,2,4]oxadiazine-1(6H)-carboxylate], 68.1%.

Staying with this experiment, now noted: Homo sapiens, 10 μM compound, Method 2 (40 nL of 1000× compound added to plate with Echo), read-out: inhibiton (%) at 10 μM.
For the compound `CCCCCOC(=O)N1O[C@H](Cc2ccccc2)C(=O)N2C1CN([C@@H](Cc1ccc(O)cc1)C(=O)NCCc1ccccc1)C(=O)[C@@H]2Cc1ccc(O)cc1` (stereo partly drawn) [Compound I-113, pentyl (3R,6S)-3-benzyl-6-(4-hydroxybenzyl)-8-((S)-3-(4-hydroxyphenyl)-1-oxo-1-(phenethylamino)propan-2-yl)-4,7-dioxohexahydropyrazino[2,1-c][1,2,4]oxadiazine-1(6H)-carboxylate], the inhibition at 10 µM was determined as 62.9%. On the same count and under the same terms, with `COC(=O)N1O[C@H](CC2CCCCC2)C(=O)N2C1CN(CCc1cccc3ccccc13)C(=O)[C@@H]2CCCCN` (stereo partly drawn) [Compound I-42, (3R,6S)-methyl 6-(4-aminobutyl)-3-(cyclohexylmethyl)-8-(2-(naphthalen-1-yl)ethyl)-4,7-dioxohexahydropyrazino[2,1-c][1,2,4]oxadiazine-1(6H)-carboxylate] the figure was 95%; with `O=C(NCCCO)[C@H](Cc1ccccc1)N1CC2N(C(=O)OCCc3ccc(O)cc3)O[C@H](Cc3ccccc3)C(=O)N2[C@@H](Cc2ccccc2)C1=O` (stereo partly drawn) [Compound I-81, 4-hydroxyphenethyl (3R,6S)-3,6-dibenzyl-8-((S)-1-((3-hydroxypropyl)amino)-1-oxo-3-phenylpropan-2-yl)-4,7-dioxohexahydro-pyrazino[2,1-c] [1,2,4]oxadiazine-1(6H)-carboxylate], 53%. Same read-out and setting: the figure for `CC(C)C[C@H]1ON(C(=O)OCc2cccc3ccccc23)C2CN(C3CCNCC3)C(=O)[C@H](CC(C)C)N2C1=O` (stereo partly drawn) [Compound I-136, naphthalen-1-ylmethyl (3R,6S)-3,6-diisobutyl-4,7-dioxo-8-(piperidin-4-yl)hexahydropyrazino[2,1-c][1,2,4]oxadiazine-1(6H)-carboxylate] is 79.7%; for `CC(C)CCNC(=O)[C@H](Cc1ccc(O)cc1)N1CC2N(C(=O)OCCc3ccc(O)cc3)O[C@H](Cc3ccccc3)C(=O)N2[C@@H](Cc2ccc(O)cc2)C1=O` (stereo partly drawn) [Compound I-108, 4-hydroxyphenethyl (3R,6S)-3-benzyl-6-(4-hydroxybenzyl)-8-((S)-3-(4-hydroxyphenyl)-1-(isopentylamino)-1-oxopropan-2-yl)-4,7-dioxohexahydropyrazino[2,1-c][1,2,4]oxadiazine-1(6H)-carboxylate] it is 72.4%; for `CCCCCOC(=O)N1O[C@H](Cc2ccc(O)cc2)C(=O)N2C1CN([C@@H](Cc1ccc(O)cc1)C(=O)NCCc1ccccc1)C(=O)[C@@H]2Cc1ccc(O)cc1` (stereo partly drawn) [Compound I-118, pentyl (3R,6S)-3,6-bis(4-hydroxybenzyl)-8-((S)-3-(4-hydroxyphenyl)-1-oxo-1-(phenethylamino)propan-2-yl)-4,7-dioxohexahydropyrazino[2,1-c][1,2,4]oxadiazine-1(6H)-carboxylate] it is 63.3%. As to `CCCCCOC(=O)N1O[C@H](Cc2ccccc2)C(=O)N2C1CN([C@@H](Cc1ccc(O)cc1)C(=O)NCCCC(C)C)C(=O)[C@@H]2Cc1ccc(O)cc1` (stereo partly drawn) [Compound I-111, pentyl (3R,6S)-3-benzyl-6-(4-hydroxybenzyl)-8-((S)-3-(4-hydroxyphenyl)-1-((4-methylpentyl)amino)-1-oxopropan-2-yl)-4,7-dioxohexahydropyrazino[2,1-c][1,2,4]oxadiazine-1(6H)-carboxylate], the inhibition at 10 µM was found to be 53.9%. With `CC(C)C[C@H]1C(=O)N(C2CCN(C)CC2)CC2N(C(=O)OCc3ccccc3)O[C@H](CC3CCCCC3)C(=O)N21` (stereo partly drawn) [Compound I-138, benzyl (3R,6S)-3-(cyclohexylmethyl)-6-isobutyl-8-(1-methylpiperidin-4-yl)-4,7-dioxohexahydropyrazino[2,1-c][1,2,4]oxadiazine-1(6H)-carboxylate], the inhibition at 10 µM turned out to be 98.2%. For `CCCC[C@H]1C(=O)N(CCc2cccc3ccccc23)CC2N(C(=O)OCCc3ccc(O)cc3)O[C@H](Cc3ccc(O)cc3)C(=O)N21` (stereo partly drawn) [Compound I-45, (3R,6S)-4-hydroxyphenethyl 6-butyl-3-(4-hydroxybenzyl)-8-(2-(naphthalen-1-yl)ethyl)-4,7-dioxohexahydropyrazino[2,1-c][1,2,4]oxadiazine-1(6H)-carboxylate], the inhibition at 10 µM is 54.9%. Same read-out and setting: with `CC(C)CCOC(=O)N1O[C@H](C)C(=O)N2C1CN([C@@H](Cc1ccccc1)C(=O)NCCCC(N)=O)C(=O)[C@@H]2Cc1ccccc1` (stereo partly drawn) [Compound I-87, isopentyl (3R,6S)-8-((S)-1-((4-amino-4-oxobutyl)amino)-1-oxo-3-phenylpropan-2-yl)-6-benzyl-3-methyl-4,7-dioxohexahydro-pyrazino[2,1-c] [1,2,4]oxadiazine-1(6H)-carboxylate] the figure was 58.3%; with `CC(C)C[C@H]1ON(C(=O)NCCC(c2ccccc2)c2ccccc2)C2CN(CCC(c3ccccc3)c3ccccc3)C(=O)[C@H](CCC(N)=O)N2C1=O` (stereo partly drawn) [Compound I-56, (3R,6S)-6-(3-amino-3-oxopropyl)-N,8-bis(3,3-diphenylpropyl)-3-isobutyl-4,7-dioxohexahydropyrazino[2,1-c][1,2,4]oxadiazine-1(6H)-carboxamide], 53%. With `CC[C@H](C)OC(=O)N1O[C@H](Cc2ccccc2)C(=O)N2C1CN(CCc1cccc3ccccc13)C(=O)[C@@H]2CCCCN` (stereo partly drawn) [Compound I-33, (3R,6S)-(S)-sec-butyl 6-(4-aminobutyl)-3-benzyl-8-(2-(naphthalen-1-yl)ethyl)-4,7-dioxohexahydropyrazino[2,1-c][1,2,4]oxadiazine-1(6H)-carboxylate], the inhibition at 10 µM was determined as 59.6%.
